Test results: PubChem BioAssay (NCI)
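The compound was tested at five concentrations on cells cultured in 96-well plates, with a 48-hour exposure period. Definition used: TGI = concentration required for complete inhibition of growth.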

Assays:
Experiment in all cases: NCI-60 cell line screen, 48 h
[1] = system: K-562 leukemia
[2] = system: SF-268 CNS
[3] = system: CAKI-1 renal
[4] = system: MDA-MB-231 breast
[5] = system: SK-OV-3 ovarian
[6] = system: HOP-92 NSCLC
[7] = system: SNB-19 CNS
[8] = system: MDA-N
[9] = system: SK-MEL-5 melanoma
[10] = system: SF-539 CNS
[11] = system: ACHN renal
[12] = system: UACC-62 melanoma
[13] = system: HCC-2998 colon
[14] = system: COLO 205 colon
[15] = system: SNB-75 CNS
[16] = system: NCI-H522 lung
[17] = system: HOP-62 NSCLC
[18] = system: SN12C renal
[19] = system: EKVX NSCLC
[20] = system: RXF 393 renal
[21] = system: TK-10 renal
[22] = system: IGROV1 ovarian
[23] = system: SK-MEL-2 melanoma
[24] = system: KM12 colon
[25] = system: LOX IMVI melanoma
[26] = system: DU-145 prostate
[27] = system: 786-0 renal
[28] = system: BT-549 breast
[29] = system: NCI-H226 lung
[30] = system: HT29 colon
[31] = system: MCF7 breast
[32] = system: UO-31 renal
[33] = system: MDA-MB-435
[34] = system: SK-MEL-28 melanoma
[35] = system: A498 renal
[36] = system: A549 NSCLC
[37] = system: SW-620 colon
[38] = system: T-47D breast
[39] = system: MALME-3M melanoma
[40] = system: SF-295 CNS
[41] = system: CCRF-CEM leukemia
[42] = system: M14 melanoma
[43] = system: MOLT-4 leukemia
[44] = system: HCT-116 colon
[45] = system: OVCAR-8 ovarian
[46] = system: RPMI-8226 leukemia
[47] = system: SR leukemia
[48] = system: HS 578T breast
[49] = system: NCI/ADR-RES ovarian
[50] = system: OVCAR-3 ovarian
[51] = system: OVCAR-4 ovarian
[52] = system: HCT-15 colon
[53] = system: OVCAR-5 ovarian
[54] = system: U251 CNS
[55] = system: UACC-257 melanoma
[56] = system: PC-3 prostate
[57] = system: NCI-H460 lung
[58] = system: NCI-H23 lung
[59] = system: HL-60(TB) leukemia

CC(C)(N)CO[C@H]1C[C@H]2CC[C@@]1(C)C2(C)C
TGI [1]: 43.3 µM | TGI [2]: > 100 µM | TGI [3]: 70.6 µM | TGI [4]: 36.5 µM | TGI [5]: > 100 µM | TGI [6]: 49.1 µM | TGI [7]: 68.5 µM | TGI [8]: 30.2 µM | TGI [9]: 32.8 µM | TGI [10]: 41 µM | TGI [11]: 95 µM | TGI [12]: 34.3 µM | TGI [13]: 5.23 µM | TGI [14]: 35.2 µM | TGI [15]: 39.3 µM | TGI [16]: 37.1 µM | TGI [17]: 44 µM | TGI [18]: > 100 µM | TGI [19]: > 100 µM | TGI [20]: 28.2 µM | TGI [21]: 40 µM | TGI [22]: > 100 µM | TGI [23]: 35.3 µM | TGI [24]: 34 µM | TGI [25]: 35.1 µM | TGI [26]: 73.8 µM | TGI [27]: 30.2 µM | TGI [28]: 60.5 µM | TGI [29]: 49.8 µM | TGI [30]: 34 µM | TGI [31]: 37.1 µM | TGI [32]: 37.7 µM | TGI [33]: 30.5 µM | TGI [34]: 27.4 µM | TGI [35]: 82.1 µM | TGI [36]: > 100 µM | TGI [37]: 54.4 µM | TGI [38]: 35.9 µM | TGI [39]: 33.6 µM | TGI [40]: 39.3 µM | TGI [41]: 83.6 µM | TGI [42]: 31.4 µM | TGI [43]: 80.9 µM | TGI [44]: 29.8 µM | TGI [45]: 53.1 µM | TGI [46]: 40.7 µM | TGI [47]: 81.1 µM | TGI [48]: 79 µM | TGI [49]: > 100 µM | TGI [50]: > 100 µM | TGI [51]: 74.5 µM | TGI [52]: 47 µM | TGI [53]: 41.3 µM | TGI [54]: 36.4 µM | TGI [55]: 34.7 µM | TGI [56]: > 100 µM | TGI [57]: 36.3 µM | TGI [58]: 66 µM

NCC[Se][Se]CCN
TGI [1]: 64 µM | TGI [2]: 32.5 µM | TGI [3]: 22.8 µM | TGI [4]: 25.7 µM | TGI [5]: 25.8 µM | TGI [6]: 35.8 µM | TGI [7]: 20.7 µM | TGI [8]: 23.4 µM | TGI [9]: 18.4 µM | TGI [10]: 34.4 µM | TGI [11]: 22.8 µM | TGI [12]: 31.1 µM | TGI [13]: 24.9 µM | TGI [14]: 14.6 µM | TGI [15]: 27.4 µM | TGI [16]: 25.6 µM | TGI [17]: 21.3 µM | TGI [18]: 21.5 µM | TGI [19]: 18.1 µM | TGI [20]: 32.5 µM | TGI [21]: 30.7 µM | TGI [22]: 25.7 µM | TGI [23]: 23.2 µM | TGI [24]: 20.6 µM | TGI [26]: 26.4 µM | TGI [27]: 29.4 µM | TGI [28]: 27.8 µM | TGI [29]: 29.1 µM | TGI [30]: 26.9 µM | TGI [31]: 33.1 µM | TGI [32]: 13.3 µM | TGI [33]: 24.9 µM | TGI [34]: 29.7 µM | TGI [35]: 23.8 µM | TGI [36]: 25.3 µM | TGI [37]: 48.9 µM | TGI [38]: 64.4 µM | TGI [39]: 25.2 µM | TGI [40]: 11.5 µM | TGI [41]: 45.6 µM | TGI [42]: 13.3 µM | TGI [43]: > 100 µM | TGI [44]: 15.3 µM | TGI [45]: 38.1 µM | TGI [46]: > 100 µM | TGI [59]: 7.57 µM | TGI [47]: > 100 µM | TGI [48]: 82.2 µM | TGI [49]: 58 µM | TGI [50]: 28.3 µM | TGI [51]: 32.1 µM | TGI [52]: 22.1 µM | TGI [53]: 17.6 µM | TGI [54]: 24.1 µM | TGI [55]: 20.4 µM | TGI [56]: 27.5 µM | TGI [57]: 21.9 µM | TGI [58]: 30.6 µM

COC(=O)c1ccc(Oc2nc3ccccc3nc2-c2cccs2)cc1
TGI [2]: 66 µM | TGI [3]: > 100 µM | TGI [4]: 57.8 µM | TGI [5]: > 100 µM | TGI [7]: 86.1 µM | TGI [8]: > 100 µM | TGI [9]: > 100 µM | TGI [10]: > 100 µM | TGI [11]: > 100 µM | TGI [12]: > 100 µM | TGI [14]: > 100 µM | TGI [15]: 26 µM | TGI [16]: > 100 µM | TGI [17]: 24.9 µM | TGI [18]: > 100 µM | TGI [19]: > 100 µM | TGI [20]: > 100 µM | TGI [21]: 86.8 µM | TGI [22]: > 100 µM | TGI [23]: > 100 µM | TGI [24]: > 100 µM | TGI [25]: > 100 µM | TGI [26]: > 100 µM | TGI [27]: > 100 µM | TGI [28]: > 100 µM | TGI [30]: > 100 µM | TGI [31]: > 100 µM | TGI [32]: > 100 µM | TGI [33]: > 100 µM | TGI [34]: > 100 µM | TGI [36]: 76.9 µM | TGI [37]: > 100 µM | TGI [38]: > 100 µM | TGI [39]: > 100 µM | TGI [40]: 48 µM | TGI [41]: > 100 µM | TGI [42]: > 100 µM | TGI [43]: > 100 µM | TGI [44]: > 100 µM | TGI [45]: > 100 µM | TGI [59]: > 100 µM | TGI [47]: > 100 µM | TGI [48]: 63.3 µM | TGI [49]: > 100 µM | TGI [50]: > 100 µM | TGI [51]: > 100 µM | TGI [52]: > 100 µM | TGI [53]: > 100 µM | TGI [55]: > 100 µM | TGI [56]: > 100 µM | TGI [57]: > 100 µM | TGI [58]: 74.5 µM

O=C(CCN1CCOCC1)Nc1ccc(F)cc1F
TGI [1]: > 100 µM | TGI [2]: > 100 µM | TGI [3]: > 100 µM | TGI [4]: > 100 µM | TGI [5]: > 100 µM | TGI [6]: > 100 µM | TGI [7]: > 100 µM | TGI [8]: > 100 µM | TGI [9]: > 100 µM | TGI [10]: > 100 µM | TGI [11]: > 100 µM | TGI [12]: > 100 µM | TGI [14]: > 100 µM | TGI [16]: > 100 µM | TGI [17]: > 100 µM | TGI [18]: > 100 µM | TGI [19]: > 100 µM | TGI [21]: > 100 µM | TGI [22]: > 100 µM | TGI [23]: > 100 µM | TGI [24]: > 100 µM | TGI [25]: > 100 µM | TGI [26]: > 100 µM | TGI [27]: > 100 µM | TGI [28]: > 100 µM | TGI [29]: > 100 µM | TGI [30]: > 100 µM | TGI [31]: > 100 µM | TGI [32]: > 100 µM | TGI [33]: > 100 µM | TGI [34]: > 100 µM | TGI [35]: > 100 µM | TGI [36]: > 100 µM | TGI [37]: > 100 µM | TGI [38]: > 100 µM | TGI [39]: > 100 µM | TGI [40]: > 100 µM | TGI [42]: > 100 µM | TGI [43]: > 100 µM | TGI [44]: > 100 µM | TGI [45]: > 100 µM | TGI [46]: > 100 µM | TGI [59]: > 100 µM | TGI [47]: > 100 µM | TGI [48]: > 100 µM | TGI [49]: > 100 µM | TGI [50]: > 100 µM | TGI [51]: > 100 µM | TGI [52]: > 100 µM | TGI [53]: > 100 µM | TGI [54]: > 100 µM | TGI [55]: > 100 µM | TGI [56]: > 100 µM | TGI [57]: > 100 µM | TGI [58]: > 100 µM
